From US7253177B2, “Synthesis and antimalarial activity of pyrrolo[3,2-f]quinazoline-1,3-diamine derivatives” (United States of America as Represented by the Secretary of …, priority 2004, dated 2007)
“And” between values parts separate entries of the source, which are not always exact repeats. Equal entries are not always repeated.

What was measured:
P. vivax AMRU-1 strain = assay: Antimalarial activity against P. vivax in Aotus monkey; format: in vivo, Plasmodium vivax; details: for # Monkey Cured/# Monkey Used, P. vivax: cured = parasitemia free for 100 days post treatment; for outcome against P. vivax at 1 and 3 mg/kg/day x3: po, antifolate-resistant clone with four DHFR mutations
Description: (§1) (e). Toxicity Study in Aotus monkey: Protocol: Two malaria double cured Aotus weighing 1027-695 grams respectively received single dose of 3 mg/kg orally of the two compounds 2b and 3e. The monkeys were weighed and pre-bleed for CBC and Chemistry (ALT, BUN, Creatinine) determination, and again three, seven and 15 days post treatment. Signs of toxicity such as anorexia, vomiting, diarrhea or behavior changes were recorded. […] (f). Antimalarial Activity against P. falciparum in Aotus monkey: Protocol: Six (6) malaria naive Aotus lemurinus lemurinus (weigh 787-978 grms) were divided into two groups of two Aotus each plus two controls (MN13177 male and MN 13153 male) and infected with 5×10^6 P. falciparum FVO malaria parasites with 1 ml of an appropriate dilution in RPMI media intravenously on the saphenous vein. When their parasitemia reached 5×10^4 parasites/ul, treatment was started. Giemsa-stained thick blood smears were prepared daily with a prick in the ear marginal vein and parasites enumerated by the Earle and Perez method. Group 1 Aotus received 3e at 1 mg/kg once a day×three days. Group 2 Aotus received 2b at 1 mg/kg once a day×three days. The monkeys were weight and pre-bled for CBC and Chemistry (ALT, BUN, Creatinine) determination, and on day 4 post-treatmetne (PT). Bleedings for Pk determinations were carried out on day 1 PT at time 0, 1 hr, 7:30 hr and 24 hr PT. Group 1 (receiving 3e) animals cleared the parasitemias on day 3 post treatment (PT) and remained negative up to 100 days PT. In group 2 (receiving 2b), one animal cleared on day 3 PT and the other one on day 4 PT remaining negative up to 100 days PT. […] (g). Antimalarial Activity against P. vivax in Aotus monkey: Protocol: Fourteen (14) P. falciparum cured Aotus l. lemurinus monkeys (male and female) (weight 700-925 grms) were infected intravenously with 5×10^6 parasites of the P. vivax AMRU-1 strain diluted in RPMI media obtained from a donor and divided into two larger groups of 6 monkeys each (Group I and Group II) (2 monkeys per dose level), that received 3e and 6 monkeys (2 monkeys per dose level) that received 2b daily at 0.5, 1.0 and 3 mg/kg/day for a total of 3 days. Two monkeys were left has untreated controls. Treatment started when parasitemia reached 5,000 parasites×cc/mm on day 6 PI. Daily food intake was documented. Daily Giemsa-stained thick blood smears were prepared from a prick in the marginal ear vein and parasites enumerated by the Earle and Perez method. The animals were weighed at weekly intervals. Blood samples for Pk determination were collected at the following time points as follows: Day 0: CBC and chemistry panel (ALT. Creatinine and BUN); Day 4: CBC and chemistry Panel. CBC and chemistry panels were done the day prior to first dose and 24 hours after last dose and at weekly intervals thereafter. […] The other monkeys received 1 and 3 mg/kg of 3e remained negative until day 100 PT. In Group II, all monkeys except for one that received 3 mg/kg of 2b failed treatment and were retreated on day 3 PT with 3e at either 0.25, 0.5 or 1 mg/kg for three days. In the monkeys that received re-treatment at 0.25 mg/kg, one cleared on day 4 PT but needed to be treated with Mefloquine on day 8 PT due to a low platelet count. The other animals that had not been cleared by day 6 PT were treated with Mefloquine. […] P. vivax is known to be very drug resistant to antifolates. (h). Presumptive Causal Prophylactic Test against P. cynomolgi in Rhesus monkey: Protocol: […]

[1] = Toxicity study in Aotus monkey; format: in vivo; details: for CBC parameters / body weight change / adverse effects (anorexia, vomiting, diarrhea, behavior): single oral 3 mg/kg; for adverse effects (anorexia, vomiting, diarrhea, behavior): 28 day observation period; for behavior, weight or blood chemistry changes: single oral dose 3 mg/kg
Description: as §1

| SMILES | activity against P. vivax at 0.5 and 1 mg/kg x3 (P. vivax AMRU-1 strain) | # Monkey Cured/# Monkey Used, P. vivax (P. vivax AMRU-1 strain; 0.5 mg/kg/day x 3 days) | # Monkey Cured/# Monkey Used, P. vivax (P. vivax AMRU-1 strain; 1 mg/kg/day x 3 days) | # Monkey Cured/# Monkey Used, P. vivax (P. vivax AMRU-1 strain; 3 mg/kg/day x 3 days, 3 mg/kg/day) | outcome against P. vivax at 1 and 3 mg/kg/day x3 (P. vivax AMRU-1 strain) | CBC parameters [1] | body weight change [1] | adverse effects (anorexia, vomiting, diarrhea, behavior) [1] | behavior, weight or blood chemistry changes [1] | outcome against P. vivax at 0.5 mg/kg (P. vivax AMRU-1 strain; 0.5 mg/kg/day x 3 days, two monkeys) | # Monkey Cured/# Monkey Used, P. vivax (P. vivax AMRU-1 strain; 3 mg/kg/day x 3 days) | remained negative until day PT (P. vivax AMRU-1 strain; P. vivax, 1 and 3 mg/kg x 3 days) |
| --- | --- | --- | --- | --- | --- | --- | --- | --- | --- | --- | --- | --- |
| CCOC(=O)Nc1nc(NC(=O)OCC)c2c(ccc3c2ccn3Cc2ccccc2C(F)(F)F)n1 [Compound 2b] | not active | 0/2 | 0/2 | one out of two and 1/2 | less active | remained within normal ranges | No significant changes in body weight | No adverse effects | no behavior, weight or blood chemistry changes | – | – | – |
| CC(=O)N(C(C)=O)c1nc(N(C(C)=O)C(C)=O)c2c(ccc3c2ccn3Cc2ccccc2C(F)(F)F)n1 [Compound 3e, 1,3-Bis(diacetylamino)-7-(2-trifluoromethyl)benzyl-7H-pyrrolo[3,2-f]quinazoline] | – | 0/2 | 2/2 | – | cured and 4/4 | remained within normal ranges | No significant changes in body weight | No adverse effects | no behavior, weight or blood chemistry changes | suppressed the parasitemia but needed re-treatment on day 10 PT | 2/2 | 100 days |
